The first experiment deals with LRRK2 G2019S (Homo sapiens, UniProt Q5S007, G2019S). The experiment in a line: LRRK2 G2019S Km ATP LanthaScreen assay. It is filed as biochemical.
Sequence of LRRK2 G2019S (Q5S007 whole entry G2019S): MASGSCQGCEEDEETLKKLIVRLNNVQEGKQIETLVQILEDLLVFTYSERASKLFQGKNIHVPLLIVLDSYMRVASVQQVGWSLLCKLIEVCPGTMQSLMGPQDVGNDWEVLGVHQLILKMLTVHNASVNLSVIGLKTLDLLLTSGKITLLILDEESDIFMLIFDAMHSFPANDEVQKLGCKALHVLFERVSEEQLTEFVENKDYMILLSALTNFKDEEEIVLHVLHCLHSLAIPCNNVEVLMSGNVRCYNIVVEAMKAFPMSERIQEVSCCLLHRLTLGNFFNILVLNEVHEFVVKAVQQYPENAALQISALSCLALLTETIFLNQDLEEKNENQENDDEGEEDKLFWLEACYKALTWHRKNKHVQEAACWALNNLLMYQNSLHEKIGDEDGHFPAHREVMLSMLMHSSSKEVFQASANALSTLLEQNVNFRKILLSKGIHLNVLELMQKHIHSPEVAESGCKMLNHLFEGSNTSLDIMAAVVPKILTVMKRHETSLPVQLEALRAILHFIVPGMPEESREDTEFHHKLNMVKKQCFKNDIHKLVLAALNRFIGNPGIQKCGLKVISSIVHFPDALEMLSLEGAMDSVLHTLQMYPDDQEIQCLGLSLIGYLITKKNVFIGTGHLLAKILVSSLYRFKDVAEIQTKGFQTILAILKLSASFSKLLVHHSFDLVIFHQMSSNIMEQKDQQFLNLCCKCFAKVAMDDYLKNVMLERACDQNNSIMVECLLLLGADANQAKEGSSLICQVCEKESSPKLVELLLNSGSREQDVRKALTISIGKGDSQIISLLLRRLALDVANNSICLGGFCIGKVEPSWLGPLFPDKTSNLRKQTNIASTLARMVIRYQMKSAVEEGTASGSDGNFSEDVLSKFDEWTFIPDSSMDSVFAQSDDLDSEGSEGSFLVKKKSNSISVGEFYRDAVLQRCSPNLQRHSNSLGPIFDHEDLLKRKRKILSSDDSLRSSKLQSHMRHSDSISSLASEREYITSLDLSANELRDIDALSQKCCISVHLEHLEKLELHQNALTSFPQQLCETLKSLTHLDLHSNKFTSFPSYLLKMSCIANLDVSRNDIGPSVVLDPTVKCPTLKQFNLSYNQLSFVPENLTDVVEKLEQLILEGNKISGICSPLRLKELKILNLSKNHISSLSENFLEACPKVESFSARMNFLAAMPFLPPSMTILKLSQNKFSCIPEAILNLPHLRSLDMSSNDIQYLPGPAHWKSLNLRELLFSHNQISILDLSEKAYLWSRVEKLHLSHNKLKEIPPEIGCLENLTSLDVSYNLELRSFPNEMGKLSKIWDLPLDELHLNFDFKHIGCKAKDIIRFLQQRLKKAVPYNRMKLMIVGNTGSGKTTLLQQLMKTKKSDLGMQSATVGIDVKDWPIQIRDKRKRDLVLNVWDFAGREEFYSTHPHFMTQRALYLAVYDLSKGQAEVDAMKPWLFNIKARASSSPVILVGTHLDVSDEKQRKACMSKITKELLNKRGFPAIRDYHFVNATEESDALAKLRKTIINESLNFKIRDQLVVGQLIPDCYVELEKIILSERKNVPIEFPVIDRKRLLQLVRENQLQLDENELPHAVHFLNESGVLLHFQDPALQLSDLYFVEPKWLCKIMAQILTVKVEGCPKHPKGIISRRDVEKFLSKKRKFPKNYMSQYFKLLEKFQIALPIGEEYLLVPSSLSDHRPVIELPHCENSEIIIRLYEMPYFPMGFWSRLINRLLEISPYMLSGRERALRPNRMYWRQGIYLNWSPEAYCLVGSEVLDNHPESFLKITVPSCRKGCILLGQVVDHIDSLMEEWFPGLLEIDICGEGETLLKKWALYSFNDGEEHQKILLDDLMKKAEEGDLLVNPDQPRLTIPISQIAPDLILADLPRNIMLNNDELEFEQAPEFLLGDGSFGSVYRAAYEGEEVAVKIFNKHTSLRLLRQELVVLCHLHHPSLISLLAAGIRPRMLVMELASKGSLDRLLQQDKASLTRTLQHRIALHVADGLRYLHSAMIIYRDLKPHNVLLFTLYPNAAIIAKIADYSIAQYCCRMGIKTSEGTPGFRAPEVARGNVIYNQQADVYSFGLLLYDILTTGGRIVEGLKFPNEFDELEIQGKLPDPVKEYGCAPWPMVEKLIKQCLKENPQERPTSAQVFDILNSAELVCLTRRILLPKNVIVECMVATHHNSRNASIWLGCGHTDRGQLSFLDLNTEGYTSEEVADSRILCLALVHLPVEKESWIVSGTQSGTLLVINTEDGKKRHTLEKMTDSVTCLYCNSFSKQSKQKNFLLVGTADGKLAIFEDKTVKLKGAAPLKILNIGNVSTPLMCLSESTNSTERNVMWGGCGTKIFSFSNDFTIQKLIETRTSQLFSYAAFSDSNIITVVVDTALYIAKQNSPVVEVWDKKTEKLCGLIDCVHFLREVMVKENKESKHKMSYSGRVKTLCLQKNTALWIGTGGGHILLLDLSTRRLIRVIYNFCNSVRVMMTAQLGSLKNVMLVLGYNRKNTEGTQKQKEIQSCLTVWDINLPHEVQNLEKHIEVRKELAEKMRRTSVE
Details: not given
For `O=C(Nc1cc2cc(C3CCN(C4COC4)CC3)c(Cl)cc2cn1)C1CC12CC2` (centres unmarked) [Ex-9.1], the “LRRK2 pIC50” value amounted to 8.69.
Same read-out and setting: next, `Cn1ncc(C2CC2C(=O)Nc2cc3cc(C4CCN(C5(C)COCC5O)CC4)c(Cl)cc3cn2)n1` [Ex-20.1, (1R,2R and 1S,2S)-N-(7-chloro-6-(1-(4-hydroxy-3-methyltetrahydrofuran-3-yl)piperidin-4-yl)isoquinolin-3-yl)-2-(2-methyl-2H-1,2,3-triazol-4-yl)cyclopropane-1-carboxamide]: 10.09.

Staying with this experiment, now noted: read-out: LRRK2 pIC50 (converted).
As to `O=C(Nc1cc2cc(C3CCN(C4COC4)CC3)c(Cl)cc2cn1)C1(F)CC1` [Ex-7.8, N-(7-chloro-6-(1-(oxetan-3-yl)piperidin-4-yl)isoquinolin-3-yl)-1-fluorocyclopropane-1-carboxamide], the IC50 was 9.12 nM.
Take `O=C(Nc1cc2cc(C3CCOCC3)c(Cl)cc2cn1)C1CC12CCOCC2` (centres unmarked) [Ex-7.10, N-(7-chloro-6-(tetrahydro-2H-pyran-4-yl)isoquinolin-3-yl)-6-oxaspiro[2.5]octane-1-carboxamide]: the IC50 was 2.75 nM.
The same measure, in the same setting: in the case of `CCC1C(C(=O)Nc2cc3cc(C4CC(C#N)C4)c(Cl)cc3cn2)C1c1cnn(C)c1` (centres unmarked) [Ex-9.17, N-(7-chloro-6-(3-cyanocyclobutyl)isoquinolin-3-yl)-2-ethyl-3-(1-methyl-1H-pyrazol-4-yl)cyclopropane-1-carboxamide] it was 33.1 nM; in that of `CCC1C(C(=O)Nc2cc3cc(C4CC(C#N)C4)c(Cl)cc3cn2)C1c1cnn(C)c1` (centres unmarked) [Ex-9.18, N-(7-chloro-6-(3-cyanocyclobutyl)isoquinolin-3-yl)-2-ethyl-3-(1-methyl-1H-pyrazol-4-yl)cyclopropane-1-carboxamide], 22.4 nM; in that of `O=C(Nc1cc2cc(C3CCN(C4CS(=O)(=O)C4)CC3)c(Cl)cc2cn1)C1CC1` [Ex-13.5], 4.17 nM.
For the compound `CC1(N2CCC(c3cc4cc(NC(=O)C5CC5)ncc4cc3Cl)C(F)C2)COC1` (centres unmarked) [Ex-14.3, N-(7-chloro-6-(3-fluoro-1-(3-methyloxetan-3-yl)piperidin-4-yl)isoquinolin-3-yl)cyclopropanecarboxamide], the IC50 was 0.589 nM.
Consider `Cc1cc2cnc(NC(=O)C3CC3)cc2cc1C1CCN(C2(C)COC2)CC1` [Ex-15.1], for which the IC50 was 3.24 nM.
Same read-out and setting: next, `N#CC1(c2ccc3cnc(NC(=O)C4CC4)cc3c2)CC1` [Ex-17.1]: 19.1 nM; `N#CC1(c2ccc3cnc(NC(=O)C4CC4)cc3c2)CCC1` [Ex-17.2]: 14.5 nM.
The same measure, in the same setting: next, `CC(C)c1cc2cc(NC(=O)C3CC3c3cnn(C)c3)ncc2cc1Cl` (centres unmarked) [Ex-21.1, N-(7-chloro-6-isopropylisoquinolin-3-yl)-2-(1-methyl-1H-pyrazol-4-yl)cyclopropane-1-carboxamide]: 0.0813 nM; `C[C@@]1(N2CC[C@@H](c3cc4cc(NC(=O)[C@H]5CC56CC6)ncc4cc3Cl)[C@H](F)C2)COC[C@@H]1O` [Ex-23.1, (S)-N-(7-chloro-6-((3S,4S)-3-fluoro-1-((3R,4R)-4-hydroxy-3-methyltetrahydrofuran-3-yl)piperidin-4-yl)isoquinolin-3-yl)spiro[2.2]pentane-1-carboxamide]: 0.0813 nM; `C[C@@]1(N2CC[C@@H](c3cc4cc(NC(=O)[C@@H]5CC56CC6)ncc4cc3Cl)[C@H](F)C2)COC[C@@H]1O` [Ex-23.2, (R)-N-(7-chloro-6-((3S,4S)-3-fluoro-1-((3R,4R)-4-hydroxy-3-methyltetrahydrofuran-3-yl)piperidin-4-yl)isoquinolin-3-yl)spiro[2.2]pentane-1-carboxamide]: 0.0813 nM.

The record behind these values is US20240398784A1, “C-LINKED ISOQUINOLINE AMIDES AS LRRK2 INHIBITORS, PHARMACEUTICAL COMPOSITIONS, AND USES THEREOF” (Merck Sharp & Dohme LLC, priority 2021, published 2024).
